From patent publication US10278958B2, “IPA as a protective agent” (IXCELA, INC., priority 2012, dated 2019)
Entries after “also recorded” stand apart in the source; their conditions may differ.

Experiments:
[1] = Distribution of gut-produced IPA to plasma, brain and CSF; assay type: in vivo, HD mouse models and human; conditions: for crossing of the blood-brain-barrier: gut-produced IPA, brain and CSF
Excerpt: (§1) IPA is an indole produced in organisms such as c. Sporogenes that have the enzyme to remove the OH from the 2 position on the propionic acid side chain of indole lactic acid an end product of tryptophan metabolism in mammalian species. It is one of several gut metabolites that affect the plasma metabolome. Other organisms such as brewers yeast also show the ability to produce IPA (Sec below a means of producing purified IPA preparations using brewers yeast or similar organisms). […] We have shown that on free radical attack the intermediate positive ion free radical binds to protein as a kynuric acid moiety. […] We also have identified two metabolites of IPA that allow monitoring of levels in excretion samples such as urine which correlate with plasma and brain levels.

brewers yeast protein = assay: Binding of IPA to brewers yeast protein (10K MW filter) and release in HCl; assay type: physicochemical; conditions: supernate through a 10K MW filter
Excerpt: In yet another aspect of the disclosure we provide a method for preparation of purified indole therapies. Indoles as a class are subject to degradation and contamination such as the problem encountered with preparations of tryptophan that were related to development basal eosinophilia. Nominally pure commercial sources of indoles when evaluated using ultra-sensitive LCECA techniques show traces of other compounds from the […] to (pg/mg) levels (part per billion to sub part per trillion). These are potentially harmful. Pharmaceutical grade and supplemental tryptophan has now been brought to levels high purity that can be verified by LCECA. To take advantage of this we have developed a protocol for creating high concentrations of IPA using brewers yeast which also produces IPA with relatively good efficiency operating on a substrate of glucose and tryptophan. Brewers yeast as such is a common supplement and present as an extract in typical research mouse feed. Production of IPA in this matrix provides a highly purified IPA in a verifiably and long accepted matrix. As an example a preparation of 1 g of brewers yeast, 500 mg of glucose and 50 mg of tryptophan allowed to incubate to completion at room temperature (90-120 min) in 35 ml of distilled water yields ca. 3 mg of IPA. […]

[2] = test system: plasma proteins both albumin and imunoglobulins; assay type: in vitro ADME
Excerpt: as §1

BSA = BSA (Bos taurus, UniProt P02769); assay type: binding
Sequence of BSA (P02769 25-607): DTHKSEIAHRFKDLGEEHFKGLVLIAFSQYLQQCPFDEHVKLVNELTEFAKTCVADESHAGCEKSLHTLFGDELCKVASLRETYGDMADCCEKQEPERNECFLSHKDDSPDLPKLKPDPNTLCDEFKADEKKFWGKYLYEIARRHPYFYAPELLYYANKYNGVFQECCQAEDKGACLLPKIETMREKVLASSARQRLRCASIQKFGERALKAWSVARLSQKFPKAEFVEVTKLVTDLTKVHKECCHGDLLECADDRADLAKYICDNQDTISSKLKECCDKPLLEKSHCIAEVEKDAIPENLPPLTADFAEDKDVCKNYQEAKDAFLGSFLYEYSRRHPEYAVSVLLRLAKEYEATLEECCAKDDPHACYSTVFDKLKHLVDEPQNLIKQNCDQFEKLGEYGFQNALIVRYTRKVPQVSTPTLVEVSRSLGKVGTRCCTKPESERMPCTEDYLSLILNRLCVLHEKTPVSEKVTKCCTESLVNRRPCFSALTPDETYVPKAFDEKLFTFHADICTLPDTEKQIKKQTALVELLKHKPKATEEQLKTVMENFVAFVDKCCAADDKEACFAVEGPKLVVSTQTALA
Excerpt: (§2) In ancillary studies we measured the parent binding constants for I3PA with whole human plasma, HSA, BSA and ubiquitin using serial additions of I3PA to determine the number of molar equivalents of binding sites and mole equivalents of free I3PA. The binding constants (pk) for whole human plasma, HSA and BSA are one the order of 10^3 or greater than for ubiquitin alone. […] Thus, efforts to increase the yield of covalently bound kynuric acid were prevented by over generation of non-covalently bound material. We then decided to attempt this Fenton reaction with I3PA using angiotensin I as the peptide target.

[3] = Fenton reaction: disappearance of I3PA; assay type: physicochemical; conditions: 100 μM H2O2, 10 μM iron sulfate, 100 μM I3PA, 4° C. in the dark, 2 h
Description: The reaction mixture was kept at 4° C. in the dark. Every 30 min, a small aliquot of the reaction mixture was diluted 1:10 and injected onto the offline LC-EC array system.

protein aggregation = conditions: in vitro; cited from earlier work
E. coli = conditions: culture studies; cited from earlier work
[4] = test system: ischemia-induced neuronal damage; conditions: mice and hamsters; by reducing DNA damage and lipid peroxidation; cited from earlier work
whole human plasma = assay: Binding constants for I3PA by serial additions, whole human plasma; conditions: whole human plasma vs ubiquitin
Excerpt: as §2

[5] = Stability of IPA in plasma at room temperature; assay type: in vitro ADME; conditions: after 7 days at room temperature
Excerpt: FIG. 26 illustrates the first criterion for selecting compounds for targeted methods is that is a progressive biomarkers—as shown by the trend from C to PMHD to HD in the left hand panel for IPA. A practical criterion is stability. […] Method development then involves integrating simplest preparative and instrument protocols for speed and minimum sample size and interferences. A preparative protocol using a simple 3:1 addition of methanol to plasma centrifuging and injecting supernate was matched to a mobile phase, column and detector settings allowing sensitivity to 2 ng/ml, linearity across the range and analysis with no currently determined interferences. […] The third panel illustrates the application of the method to mouse urine in a dose loading study of IPAM showing two metabolites in dosed animals (green) and the same two metabolites in un dosed mice (blue) and in human urine (red).

[6] = test system: Alzheimer β-amyloid protein; conditions: two examples of oxidative stress; cited from earlier work
[7] = Loading study of IPAM in R6/2 HD mice; assay type: in vivo, mouse
Description: A cohort of R6/2 HD mice were dosed daily for 3 weeks intra peritoneal with 200 ug of the IPA derivative amide indole propionamide (IPAM) and compared with undosed R6/2 and their wild type littermates. Feces and urine were collected at the time of sacrifice and blood and brain after sacrifice. The data indicates: • 1. That the brain and plasma levels correlate with urinary levels and thus animals can be tracked in a drug trial without sacrifice. • 2. […] The R6/2 levels of IPA in brain and plasma are lower than in wild type mice. In this study although feces levels were lower the decrease was not significant.

angiotensin I = target: T1, angiotensin I (Homo sapiens, UniProt P01019); assay: Fenton reaction of I3PA with angiotensin I, MS/MS
T1 construct: attempt this Fenton reaction with I3PA using angiotensin I as the peptide target; purchased The American Peptide Co
Description: Angiotensin I was obtained from The American Peptide Co in Sunnyvale, Calif., USA. Six tubes were prepared with the following Fenton reaction mixtures: Tubes 1 and 4 contained 100 μM H2O2, 10 μM iron sulfate and 100 μM I3PA; Tubes 2 and 5 contained 100 μM H2O2, 100 μM iron sulfate and 100 μM I3PA. Tubes 3 and 6 contained 100 μM H2O2, 200 μM iron sulfate and 100 μM I3PA. Tubes 4, 5, and 6 also contained 1 μl of angiotensin I prepared to a concentration of 10 mg/ml. A separate tube containing only the Fenton reaction without angiotensin I was prepared and labeled as the negative control. The tubes containing the reaction mixtures were covered with aluminum wrap so that none of the reagents would deteriorate in the ambient light. All reaction mixtures were kept on ice. The tubes were left to react for 30 h.
High resolution MS analysis of the reaction mixtures was performed using a 12-T Qh/FT-ICR hybrid mass spectrometer (SolariX, Bruker Daltonics) that was equipped with a nanospray source operated in the positive mode. Samples were diluted 1:2 in 50/50 methanol/water, 0.5% formic acid (for positive-ion mode) or 50/50 methanol/water, 0.05% triethylamine (TEA) (VWR Scientific, PA, USA) (for negative-ion mode) and were analyzed on the SolariX in positive and negative modes. Detection of ions in the SolariX was obtained at a resolution of approximately 110,000. […]

ubiquitin = target: T2, ubiquitin (Homo sapiens, UniProt P0CG47); assay: Fenton reaction of I3PA with ubiquitin, high resolution MS
T2 construct: A calculation of a theoretical value for ubiquitin ([M+H]^+ m/z 8560.6287)
Description: A Fenton reaction was performed using the same concentrations of hydrogen peroxide, iron sulfate and I3PA as discussed above. One microliter of a solution of ubiquitin prepared to a concentration of 10 mg/mi was added to the mixture. In addition, a separate tube containing only the Fenton reaction without ubiquitin was prepared and labeled as the negative control. The reaction was kept in the dark at 4° C. for 16 h.
High resolution MS analysis of the reaction mixtures was performed using a 12-T Qh/FT-ICR hybrid mass spectrometer (SolariX, Bruker Daltonics) that was equipped with a nanospray source operated in the positive mode. Samples were diluted 1:10 in 50/50 methanol/water, 0.5% formic acid and analyzed on the SolariX. Detection of ions in the SolariX was obtained at a resolution of approximately 110,000.

O=C(O)CCc1c[nH]c2ccccc12 [IPA, indole-3-propionic acid]
absorption ([1]; animal model and human studies): best adsorbed through the gut | crossing of the blood-brain-barrier [1]: crosses the BBB and is found in brain and CSF | crossing of the blood-brain-barrier ([1]; listed as I3PA): did cross the blood-brain-barrier; also recorded: crosses the blood-brain-barrier | transfer from gut to plasma ([1]; residual fecal levels vs plasma levels): majority of IPA produced is transferred to plasma | IPA coordinately bound to brewers yeast protein (brewers yeast protein): 75-80% | binding to plasma proteins [2]: strongly bound to plasma proteins | free levels [2]: ca. 0.1 ng/ml | loading capacity of plasma for IPA [2]: approximately 10 ug/ml | normal plasma levels [2]: ca. 200 ug/ml | binding constants (pk) relative to ubiquitin alone (BSA): ~10^3 | oxidative stability in Fenton reaction [3]: disappearance of I3PA | effect on protein aggregation (protein aggregation): suppress protein aggregation | effect on other microbial species (E. coli): suppress other microbial species such as E. coli | protection of neurons [4]: protects neurons from ischemia-induced neuronal damage | binding constants (pk) relative to ubiquitin alone (whole human plasma): ~10^3 | degradation in plasma [5]: 5% | neuroprotection [6]: strong levels of neuroprotection

indole propionamide [IPAM]
conversion of IPAM to IPA ([7]; intra peritoneal 200 ug daily for 3 weeks, R6/2 mice, blood/plasma vs gut): converted rapidly in the blood to IPA but less rapidly in the gut; also recorded: rapidly converted to IPA in the plasma; also recorded: converted rapidly to I3PA in plasma and less rapidly in the gut | urinary metabolites ([7]; mouse urine of dosed animals): probable glucuronide type Phase II metabolite compounds

kynuric acid
covalent binding site on angiotensin I (angiotensin I): Tyr4 | binding of I3PA oxidation product to ubiquitin (ubiquitin): bound both covalently and co-coordinately
